Marks after values point to notes of the source that are not given here.
Assays:
[1] = tested on: IL-6 production from neutrophil; experiment: Inhibitory activity against IL-6 production, LPS-stimulated neutrophil fraction from human peripheral blood; assay type: cell-based; conditions: 10 μg/mL LPS, 16-18 hours, RIA
[2] = tested on: IL-6 production from synovial membrane cells of RA patients; experiment: Inhibitory activity against IL-6 production, synovial membrane cells from RA patient; assay type: cell-based, human; conditions: synovial membrane cells from RA patient
[3] = tested on: adjuvant articular swelling; experiment: Rat adjuvant arthritis: inhibitory effect against articular swelling; assay type: in vivo
Protocol: A rat adjuvant arthritis model, which is commonly used in an in vivo evaluation for antirheumatic agents, was employed in this evaluation. To prepare an arthritis model, heat-killed cells of Mycobacterium butyricum (Difco) were suspended in mineral oil, and a rat was intradermally injected with 0.05 mL of 1% solution of the suspension at the plantar of left hind leg.
Using the above arthritis model, Compound Ia was administered to the animal for 22 days after injection of the adjuvant, and the articular swelling was measured from time to time to evaluate the prophylactic inhibitory effect. On the other hand, the curative effect was evaluated by administering Compound Ia to animals from Day 15 to Day 25 after injection of the adjuvant and measuring the articular swelling in injected and non-injected legs. Inhibitory and curative effects were expressed by effective dose for 30% inhibition (ED30).

[4] = tested on: IL-6 level in articular tissue; experiment: Rat adjuvant arthritis: repressive effect on the IL-6 level in articular tissue; assay type: in vivo; conditions: oral, 18 days after adjuvant injection, non-injected leg
Protocol: Another adjuvant arthritis model animal was prepared apart from the above experiments, and a compound was orally administered to the animal for 18 days after the adjuvant injection. The non-injected leg was then amputated under anesthetization, epidermis of the amputated leg was ablated, the leg was frozen in liquid nitrogen, and the arthrosis part was crushed by a crushing machine. To a measured quantity of the crushed arthrosis, 3 mL of ice-cold PBS was added and homogenized with a homogenizer under ice-cooling. The resultant homogenate was centrifuged at 4° C. for 20 minutes at 3,000 rpm to collect the supernatant, which was then passed through a 0.45 μm filter to prepare a sample. The sample and MH60 BSF2 cells (derived from mouse, require IL-6) were incubated on a 96-well plate under defined conditions, and the absorbance was measured at two wave lengths of 540 nm and 690 nm. The IL-6 level in the sample was calculated based on the standard curve prepared using a recombinant human IL-6.

[5] = tested on: NZB/KN mouse; experiment: Inhibitory effect against bone destruction in spontaneous rheumatic model NZB/KN mouse; assay type: in vivo; conditions: male NZB/KN mice, oral, five times a week
Source text: To male NZB/KN mice, in which a human RA-like pathology arises spontaneously due to their immunologically abnormal background, was orally administered Compound Ia once in a day (five times a week) for six months beginning at two-month-age. The mice which reached six month old (some were eight month old) were full-length radiographed under anesthetization and predetermined conditions using a soft X-ray generator (OM-55, Omic). According to the method of Nakamura, et. al. [Arthritis. Rheum., 34, 171-179 (1991)], the number of the lesions observed in the bones and articular regions in the whole body were counted on the basis of the soft X-ray radiographed films, and the total number of the observed lesions were defined as the number of the bone disorders in the animal. The results were shown using mean±standard deviation, and significance test was performed according to Dunnett-t test (*p<0.05, ** p<0.01: vs. vehicle group).

[6] = tested on: serum amyloid protein (SAP); experiment: Effect on MRL/l mouse blood acute phase protein SAP; assay type: in vivo; conditions: oral, five times a week, 13 weeks
Protocol: After the last administration of the compound, blood was collected under anesthetization, and the serum was used for SAP measurement. SAP has been used as a marker for rheumatism. A 96-well plate was coated with rabbit anti-mouse SAP serum, and the serum to be tested was then added to the plate and incubated for 2 hours. After addition of sheep anti-mouse SAP serum, a rabbit anti-sheep IgG antibody labeled with alkaline phosphatase and then a substrate were added to the plate, and OD of developed color was measured at 405 nm.

[7] = tested on: osteoclast formation in mouse myeloblast; experiment: Inhibition of IL-1β-enhanced formation of osteoclast in mouse myeloblast culture; assay type: cell-based; conditions: 2.5 ng/mL human IL-1β, six days, TRAP positive multinucleate cells
Protocol: (§1) It has been known that the enhanced formation of osteoclast is induced in the mouse myeloblast culture by addition of IL-1β and such effect is derived from PGE2 production through COX-2 induction. In order to determine inhibitory effect of the compounds against such effect, myeloblasts were collected from a ddY male mice, plated in a 48-well plate at 1×10^6/well and incubated. After culturing for six days in an α-MEM medium containing 10% fetal bovine serum, to which 2.5 ng/mL of human IL-1β and a predetermined concentration of the compounds were added, PGE2 level in the supernatant was measured by RIA kit. On the other hand, cells adhering on the plate were immobilized, and an activity staining of tartaric acid resistant acid phosphatase (TRAP), which is a marker enzyme for osteoclast, was conducted, whereby the number of TRAP positive cells having multinucleate (N>3) per well was counted as osteoclast.

[8] = tested on: PGE2 production; experiment: Inhibition of PGE2 production due to IL-1β stimulation in mouse myeloblast culture; assay type: cell-based; conditions: 2.5 ng/mL human IL-1β, six days, RIA
Protocol: as §1

[9] = tested on: NO production from activated macrophage; experiment: Inhibitory activity against NO production from mouse activated macrophage; assay type: cell-based; conditions: LPS
Protocol: To BALB/c male mice was intraperitoneally administered 2 mL of a thioglycolate solution, and induced activated MΦ were collected after four days and used as NO producing cells. The cells were adjusted to 2×10^6 cells/mL and plated onto a 96-well microtiter plate at 2×10^5 cells/100 μL/well. 10 μL of 1 μg/mL of Compound Ia and LPS (lipopolysaccharide) were added thereto and incubated at 37° C. under 5% CO2 for 24 hours. 75 μL of the supernatant obtained after incubation and 75 μL of Griess reagent were incubated, and […] in the form of sodium nitrite was measured to determine the amount of NO in the supernatant.

[10] = tested on: transcription factor NFκB; experiment: Suppressive activity on transcription factor NFκB (HIV-1 LTR luciferase reporter in Jurkat cell); assay type: cell-based, human; conditions: for luciferase activity (%) mean ± standard error: TPA-PHA = 100
Protocol: A recombinant plasmid (pGV-B.HIV-1LTR), in which HIV-1 (AIDS) virus promoter LTR containing two NFκB binding sites is ligated to upstream of firefly luciferase gene, was constructed, and the DNA was purified. This plasmid DNA was introduced by electroporation into a Jurkat cell, a human T cell leukemic cell line, and the cell was cultured for 48 hours. Subsequently, phytohemagglutinin (PHA, 0.5%), phorbol ester (TPA (12-O-tetradecanoylphorbol 13-acetate), 25 ng/mL), and a predetermined concentration of the test compound were added thereto to allow to react for 2 hours, and the cells were harvested, and the luciferase activity in the cellular extract was measured.

`CCN1CC/C(=C\c2cc(C(C)(C)C)c(O)c(C(C)(C)C)c2)S1(=O)=O` [Compound Ia, (E)-2-Ethyl-5-(3,5-di-tert-butyl-4-hydroxy)benzylidene-1,2-isothiazolidine-1,1-dioxide] was tested, and the IC50 [1] was 20000 nM, the IC50 [2] was 10000 nM and the “dose with dose-dependent and significant inhibitory effect against articular swelling, curative effect” value ([3]; curative) was no less than 3 mg/kg/day. The “dose with dose-dependent and significant inhibitory effect against articular swelling” value ([3]; prophylactic, adjuvant-injected leg) was no less than 0.3 mg/kg/day, the “ED30 (95% confidence limits), prophylactic effect against adjuvant articular swelling” value ([3]; rat, administered for 22 days after injection of the adjuvant) was 0.88 (0.52-1.31) mg/kg/day and the “ED30 (95% confidence limits), curative effect against adjuvant articular swelling” value ([3]; rat, administered from Day 15 to Day 25 after injection of the adjuvant) was 2.6 (1.3-6.4) mg/kg/day. The “dose with dose-dependent and significant inhibitory effect against the increase of the IL-6 level in the articular tissue” value [4] was no less than 3 mg/kg/day, the “dose with significant improving effect on the bone-articular lesions” value [5] was no less than 10 mg/kg/day and the “effect on blood SAP” value ([6]; 50 mg/kg/day) was “significant results”. For the same molecule, the “effect on blood SAP” value ([6]; 2-50 mg/kg/day) was “repressive tendency in a dose-dependent manner”, the IC50 [7] was 1.3 nM and the IC50 [8] was 0.21 nM. For the same molecule, the “NO^2- Production” value ([9]; 0.8 μM compound, 24 hours) was 27.3 ± 0.94 μM/2 × 10^5 cells, the “NO^2- Production” value ([9]; 3.1 μM compound, 24 hours) was 12.3 ± 2.50 μM/2 × 10^5 cells and the “NO^2- Production” value ([9]; 12.5 μM compound, 24 hours) was <1.0*** μM/2 × 10^5 cells. The “NO^2- Production” value ([9]; 50 μM compound, 24 hours) was <1.0*** μM/2 × 10^5 cells, the “NO^2- Production” value ([9]; 100 μM compound, 24 hours) was <1.0*** μM/2 × 10^5 cells and the “concentration at which NO production was inhibited in a dose-dependent manner” value ([9]; mouse activated macrophage) was 0.8 to 12.5 µM. For the same molecule, the IC50 ([9]; mouse activated macrophage, 24 hours) was 3000 nM, the “luciferase activity (%) mean ± standard error” value ([10]; Experiment-1, 5 μM) was 82.2 ± 8.3% and the “luciferase activity (%) mean ± standard error” value ([10]; Experiment-1, 10 μM) was 79.6 ± 5.4%. For the same molecule, the “luciferase activity (%) mean ± standard error” value ([10]; Experiment-1, 20 μM) was 54.6 ± 4.3%, the “luciferase activity (%) mean ± standard error” value ([10]; Experiment-1, 50 μM) was 53.5 ± 5.9% and the “luciferase activity (%) mean ± standard error” value ([10]; Experiment-2, 20 μM) was 86.4 ± 1.9%. The “luciferase activity (%) mean ± standard error” value ([10]; Experiment-2, 50 μM) was 75.1%, the “luciferase activity (%) mean ± standard error” value ([10]; Experiment-2, 100 μM) was 61.1 ± 3.9% and the “concentration at which luciferase activity was inhibited” value ([10]; Jurkat cell, TPA-PHA) was 5 to 50 µM.
